# Data as given in patent US5594144A, “Tropolone derivatives and pharmaceutical composition thereof for preventing and treating ischemic diseases” (The Upjohn Company, priority 1990, dated 1997).
# Assays:
# [1] = test system: Brain microsomal fractions; assay: in vitro Anti-lipid peroxidation effect (TBAR production, Fe3+-ADP/NADPH); assay type: biochemical, rat (SD strain, male)
# Experimental: 1. in vitro Anti-lipid peroxidation effect
# Brain microsomal fractions were prepared from male rats of SD strain, and a portion (0.2 mg protein) was incubated at 37° C. for 15 minutes with a mixture of Fe^3+ (0.1 mM)--ADP (0.5 mM) in the presence or absence of the test compound, in final volume of 1 ml of 10 mM HEPES, 150 mM KCl, 0.2 mM NADPH, pH 7.4. After incubation, 1.5 ml of TCA-TBA-HCl reagent (16.7% trichloroacetic acid, 0.4% thiobarbituric acid, 0.278N hydrochloric acid) was added and the reaction mixture was heated in a boiling water for 15 minutes. After cooling in ice-bath, the reaction mixture was centrifuged, and the absorbance of the supernatant at 535 nm was measured. The amount of thiobarbituric acid reactive substance (TBAR) was obtained by calculation using an extinction coefficient of 1.56×10^5 […]. […] The results are shown in Table 1A for compounds of the formulas IA, IB, and IC, respectively. The compounds with highest inhibition rate have the greatest anti-lipid peroxidation effect.
# [2] = test system: pig right coronary artery; assay: in vitro Ca-antagonism (high K+ induced 45Ca-influx); assay type: cell-based; conditions: Sus scrofa, K+ 75 mM
# Experimental: 2. in vitro Ca-antagonism
# A strip of pig right coronary artery was depolarized with high K^+ (75 mM) for 30 minutes to induce voltage dependent ^45 Ca-influx. The extracellular ^45 Ca was chelated by adding EGTA and removed by washing, then the strip was lysed at 100° C. ^45 Ca in this lysate was measured as intracellular ^45 Ca by a scintillation counter. The concentration of the test compound was 10^-7, 10^-6, 10^-5 M, and applied until depolarization by K^+ was completed. Ratio of inhibition at various concentrations of the test compounds for increasing the intracellular ^45 Ca by K^+ was determined. The compound with high inhibition ratio has strong Ca-antagonism.
Structure (SMILES),Anti-Lipid Peroxidation (% inhibition) 10 μM [1] [%],Anti-Lipid Peroxidation (% inhibition) 50 μM [1] [%],inhibition at 10 µM [2] [%]
"COc1ccc(C(c2ccc(Cl)cc2)N2CCN(Cc3ccc(C(C)C)cc(OC)c3=O)CC2)cc1 (stereo not drawn) [Compound 10A, 7-[4-(4-chloro-4'-methoxybenzhydryl)piperazin-1-methyl]-4-isopropyl-2-methoxy-2,4,6-cycloheptatrien-1-one]",24.0,81.6,53
"CC(C)c1ccc(CN2CCN(C(c3ccc(F)cc3)c3ccc(F)cc3)CC2)c(=O)c(NCCNc2ncccn2)c1 [Compound 10C, 7-[4-(4,4'-difluorobenzhydryl)piperazino-1-methyl]-4-isopropyl-2-[N-2-(2-pyrimidylamino)ethylamino]-2,4,6-cycloheptatrien-1-one]",46.3,92.5,65
"CC(C)c1ccc(CN2CCN(C(c3ccc(F)cc3)c3ccc(F)cc3)CC2)c(=O)c(NCCc2ccccn2)c1 [Compound 11C, 7-[4-(4,4'-difluorobenzhydryl)piperazino-1-methyl]-4-isopropyl-2-[N-2-(2-pyridyl)ethylamino]-2,4,6-cycloheptatrien-1-one]",32.2,89.8,62
"CCOc1cc(C(C)C)ccc(CN2CCN(C(c3ccc(F)cc3)c3ccc(F)cc3)CC2)c1=O [Compound 12A, 7-[4-(4,4'-difluorobenzhydryl)piperazino-1-methyl]-2-ethoxy-4-isopropyl-2,4,6-cycloheptatrien-1-one]",21.4,50.4,72
"CC(C)c1ccc(CN2CCN(C(c3ccc(F)cc3)c3ccc(F)cc3)CC2)c(=O)c(NCc2ccccn2)c1 [Compound 12C, 7-[4-(4,4'-difluorobenzhydryl)piperazino-1-methyl]-4-isopropyl-2-(N-2-pyridylmethylamino)-2,4,6-cycloheptatrien-1-one]",86.4,89.3,47
"CCCCOc1cc(C(C)C)ccc(CN2CCN(C(c3ccc(F)cc3)c3ccc(F)cc3)CC2)c1=O [Compound 13A, 2-butoxy-7-[4-(4,4'-difluorobenzhydryl)piperazino-1-methyl]-4-isopropyl-2,4,6-cycloheptatrien-1-one]",23.1,27.4,38
"CC(C)c1ccc(CN2CCN(C(c3ccc(F)cc3)c3ccc(F)cc3)CC2)c(=O)c(NCCO)c1 [Compound 13C, 7-[4-(4,4'-difluorobenzhydryl)piperazino-1-methyl]-2-(N-2-hydroxyethylamino)-4-isopropyl-2,4,6-cycloheptatrien-1-one]",36.9,89.5,90
"COCCNc1cc(C(C)C)ccc(CN2CCN(C(c3ccc(F)cc3)c3ccc(F)cc3)CC2)c1=O [Compound 14C, 7-[4-(4,4'-difluorobenzhydryl)piperazino-1-methyl]-4-isopropyl-2-(N-2-methoxyethylamino)-2,4,6-cycloheptatrien-1-one]",27.0,90.4,71
"CC(C)c1ccc(CN2CCN(C(c3ccc(F)cc3)c3ccc(F)cc3)CC2)c(=O)c(OCc2ccccc2)c1 [Compound 15A, 2-benzyloxy-7-[4-(4,4'-difluorobenzhydryl)piperazino-1-methyl]-4-isopropyl-2,4,6-cycloheptatrien-1-one]",22.4,29.0,20
"COC(=O)CNc1cc(C(C)C)ccc(CN2CCN(C(c3ccc(F)cc3)c3ccc(F)cc3)CC2)c1=O [Compound 15C, methyl 2-{N-7-[4-(4,4'-difluorobenzhydryl)piperazino-1-methyl]-4-isopropyl-1-oxo-2,4,6-cycloheptatrien-2-ylamino}acetate]",38.6,79.8,92
